pIC50: −log10 of the molar value.
Tests used:
[1] = cited from earlier work
[2] = system: TPO-induced megakaryocytopoiesis; settings: cited from earlier work
[3] = system: human phosphodiesterase III (PDE III); test: PDE III inhibition; format: biochemical; settings: more potent than anagrelide
Source text: In early volunteer trials, the most frequently reported adverse effects AEs other than headache were palpitations, postural dizziness and nausea. During patient studies, the most frequently reported drug-related AEs were headache, palpitations, oedema/fluid retention, nausea/vomiting, diarrhea, dizziness and abdominal pain. These effects are all likely to arise from the secondary, cardiovascular pharmacology associated with anagrelide resulting from its inhibitory effects on human phosphodiesterase III (PDE III). […] Inhibition of myocardial PDE III leads to positive inotropy (increasing of the force of contractions of the heart), increased chronotropy (increase in heart rate), and peripheral vasodilatation. Such cardiovascular manifestations of this inhibition are typically seen with the classical positive inotropes, milrinone and enoximone, and exploited in the short-term acute treatment of congestive heart failure. However, in the treatment of a so-called silent disease (i.e., asymptomatic) such as ET, the cardiovascular side-effects of palpitations and tachycardia associated with anagrelide limit its utility and a significant proportion of patients—reportedly between 25 and 50%—fail to tolerate the drug during long term treatment.
The PDE III inhibitory properties of anagrelide are quite distinct from its platelet lowering anti-megakaryocytic effects. […]

[4] = Pharmacokinetics in humans; format: in vivo, human; settings: after anagrelide treatment
Source text: The PDE III inhibitory properties of anagrelide are quite distinct from its platelet lowering anti-megakaryocytic effects. Indeed studies have shown no correlation between potency as a PDE III inhibitor and anti-megakaryocytic effects for anagrelide and its principal pharmacologically active metabolite, 3-hydroxyanagrelide (3-OH anagrelide or 3-HA, formerly known as SPD604 or BCH24426). […] Anagrelide's active metabolite, 3-HA, is present in vivo in amounts greatly exceeding those of the parent drug with typical exposures being 2-3 fold greater. Thus by implication 3-OH anagrelide is likely to be a major contributor to the pharmacological actions of the drug.
The metabolism of anagrelide generally proceeds extremely rapidly, resulting in a less than ideal pharmacokinetic profile of the drug. […] This, combined with the side-effects profile, can lead to poor patient compliance. Furthermore, anagrelide undergoes a large first pass effect (>50%) leading to considerable intersubject variation in achieved exposures and, therefore, potentially variable drug response. Also, exposure to the pharmacologically active metabolite varies dramatically between patients since its formation is dependent on CYP1A, an enzyme whose expression is highly dependent on exposure to inducing agents such as cigarette smoke. […]

[5] = system: erythroid or myelomonocytic differentiation; settings: stimulated by erythropoietin or granulocyte-macrophage colony-stimulating factor; cited from earlier work
[6] = target: human phosphodiesterase III (PDE III); settings: cited from earlier work
platelet count = settings: patients with thrombocythemia secondary to a myeloproliferative disorder; cited from earlier work

Row | potency as PDE III inhibitor relative to anagrelide [3] | in vivo exposure relative to parent drug [4] | Structure (SMILES) | half-life ([1]; typical) [h] | potency in inhibition of megakaryocytopoiesis relative to anagrelide [2] | first pass effect ([1]; in vivo) [%] | pIC50 ([2]; in vitro, human megakaryocytopoiesis, read-out: estimated IC50, inhibition of TPO-induced megakaryocytopoiesis) | effect on erythroid or myelomonocytic differentiation [5] | pIC50 [6] | time to complete response (platelet count ≦600×10^9/L) (platelet count) [weeks]
1 | over 40 fold | 2-3 fold | O=C1NC2=Nc3ccc(Cl)c(Cl)c3CN2C1O (stereo not shown) [3-hydroxyanagrelide] | 2.5 | no more potent than the parent drug | – | – | – | – | –
2 | – | – | O=C1CN2Cc3c(ccc(Cl)c3Cl)N=C2N1 [Anagrelide, 6,7-dichloro-1,5-dihydroimidazo[2,1-b]-quinazolin-2(3H)-one] | – | – | > 50 | ~7.59 | does not affect | ~7.54 | 4 to 12
3 | – | – | Cc1[nH]c(=O)c(C#N)cc1-c1ccncc1 [milrinone] | – | – | – | – | – | 6.46 to 6.77 | –
